In one assay the test system is A431 cells. Kind of assay: A431 Cell Growth Inhibition Test (MTT Assay). It counts as cell-based, human. As to conditions: Homo sapiens; for inhibition at 1 µM: A-431, 68 h, compound 1 μM, 68 h incubation, read-out: Growth Inhibition Ratio (%). How it is done: A431 Cell Growth Inhibition Test (MTT Assay)
1. Cell strains: A431 (human epithelial […] cell strains);
Culture medium: 45% DMEM, 45% F12+10% FBS;
(§1) 1. A plate (10 cm) of cells in logarithmic growth phase normally cultured was collected;
(§2) 2. The culture solution was sucked out. The plate was washed with 5 ml of PBS 1-2 times;
3. PBS was sucked out, and 2 ml of 0.25% pancreatin was added to infiltrate the cells for 1 min;
4. The pancreatin was sucked out, and the culture plate was placed in an incubator. Digestion was carried out for about 15 min at 37° C.;
5. 4 ml of complete culture solution was added in the culture plate to stop the digestion. The cells were carefully scoured with micropipette (1 ml) to give a uniform cell suspension. The suspension was implanted into a 96-well cell culture plate by 2500 cells/100 μl per well. The culture plate was incubated overnight under 5% CO2 at 37° C. In day 2, 100 μl of culture solution comprising the compound was added in each well, and further incubated for 68 h under 5% CO2 at 37° C.
(§3) 6. The culture solution was sucked out;
7. 100 μl of serum-free culture solution containing 0.5 mg/ml MTT was added in each well, and incubated for 4 h;
(§4) 8. The culture solution was carefully sucked out;
9. 100 μl of DMSO was added into each well and vibrated to dissolve;
(§5) 10. OD values were determined at 490 nM.
(§6) 1. Calculation of Relative Inhibition Ratio The inhibition ratio of a compound on cell growth=(PC−n)/(PC−NC)×100%
IC50: concentration of a compound where inhibition ratio was 50%. IC50 values were fitted with Origin7.5.

For a further assay, the system named is BT-474 cells. Kind of assay: BT-474 Cell Growth Inhibition Test (SRB Assay). The assay is classed as cell-based, human. As to conditions: Homo sapiens, 70 h incubation; for inhibition at 1 µM: BT-474, 70 h, compound 1 μM, read-out: Growth Inhibition Ratio (%). How it is done: BT-474 Cell Growth Inhibition Test (SRB Assay)
1. Cell strains: BT-474 (human breast tumor cell strains);
2. SRB: available from Sigmaaldrich, goods number: S9012, lot number: 047K3751. SRB was reserved at the room temperature. 0.4% (w/v) of working solution was formulated with 1% of glacial acetic acid. The solution was reserved at the temperature of 4° C.; anti-tumor compounds; DMSO.
Culture medium (90% EMEM+10% FBS+0.1 mM NEAA, reserved at 4° C.);
(§7) 1. A plate (10 cm) of cells in logarithmic growth phase normally cultured was collected. The culture solution was sucked out. The plate was washed with 5 mL of PBS 1-2 times;
2. PBS was sucked out, and […] of 0.25% pancreatin was added to infiltrate the cells for 30 s;
3. The pancreatin was sucked out. The culture plate was pleaced in an incubator. Digestion was carried out for about 5 min at 37° C.;
4. 3 mL of complete culture solution was added to the culture plate to stop the digestion. The cells were carefully scoured with micropipette (1 ml) to give a uniform single cell suspension;
5. Cell suspension was counted. The suspension was diluted to 1×10^5/ml. The resulting suspension was developed uniformly on a plate. The plate was incubated under 5% CO2 at 37° C. overnight. In day 2, 80 μL of complete culture medium was added in each well and then 20 μL of culture solution comprising a compound was added. The mixture was incubated for 70 h under 5% CO2 at 37° C.
(§8) 6. The culture solution was sucked out. 100 uL of TCA fixed cells which were diluted to 10% were added to each well. The plate was kept in a refrigerator for 1 h at 4° C.
(§9) 7. TCA stationary liquid was sucked out. Each well was washed with 150 μL of ddH2O five times;
(§10) 8. After the stationary liquid was cleansed, the plate was dried in the air at the room temperature;
(§11) 9. 60 μL of SRB staining solution was added in each well. The well was stained for 15 min at the room temperature;
(§12) 10. The SRB staining solution was sucked out. Each well was washed with 150 μL of 1% glacial acetic acid five times;
(§13) 11. After the SRB staining solution was cleansed, the plate was dried in the air at the room temperature;
(§14) 12. 100 μL of 10 mM Tris was added in each well. The plate was vibrated to dissolve out SRB;
(§15) 13. OD values were determined at 570 nM.
as §6
(§16) IC50: Concentration of a compound where inhibition ratio was 50%. IC50 values were fitted with Origin7.5.

Another assay relates to NCI-N87 cells. Kind of assay: NCI-N87 Cell Growth Inhibition Test (MTT Assay). It counts as cell-based. The settings on record: Homo sapiens, 72 h incubation. How it is done:
NCI-N87 Cell Growth Inhibition Test (MTT Assay)
1. Cell strains: NCI-N87 (human gastric carcinoma cell strains);
as §1
2. The culture solution was sucked out. The plate was washed wtih 5 ml of PBS 1-2 times;
(§17) 3. PBS was sucked out. 1.5 ml of 0.25% pancreatin was added to infiltrate the cells for 1 min;
4. The pancreatin was sucked out. The culture plate was placed in an incubator. Digestion was carried out for about 12 min at 37° C.;
5. 4.5 ml of complete culture solution was added to the culture plate to stop the digestion. The cells were carefully scoured with micropipette (1 ml) to give a uniform cell suspension. The suspension was implanted into a 96-well cell culture disc by 17000 cells/100 μl per well. The culture plate was incubated overnight under 5% CO2 at 37° C. In day 2, 100 μl of culture solution comprising a compound was added in each well, and further incubated for 72 h under 5% CO2 at 37° C.
as §3
(§18) 7. 100 μl of serum-free culture solution containing 0.5 mg/ml MTT was added in each well, and incubated for 3 h;
as §4
(§19) 9. 100 μl of DMSO was added in each welland vibrated to dissolve;
as §5
1. Calculation of Rrelative Inhibition Ratio The inhibition ratio of a compound on cell growth=(PC−n)/(PC−NC)×100%
as §16

For the next assay, the system named is Fadu cells. The assay is described as follows: Fadu Cell Growth Inhibition Test (MTT Assay). The assay is classed as cell-based. As to conditions: Homo sapiens, 72 h incubation. As to the method: Fadu Cell Growth Inhibition Test (MTT Assay)
Cell strains: Fudu (human head and neck cancer cell strains);
Culture medium: 90% EMEM+10% FBS;
as §1, §2, §17
4. The pancreatin was sucked out. The culture plate was placed in an incubator. Digestion was carried out for about 5 min at 37° C.;
5. 4.5 ml of complete culture solution was added to the culture plate to stop the digestion. The cells were carefully scoured with micropipette (1 ml) to give a uniform cell suspension. The suspension was implanted into a 96-well cell culture plate by 6000 cells/100 μl per well. The culture plate was incubated overnight under 5% CO2 at 37° C. In day 2, 100 μl of culture solution comprising a compound was added in each well, and further incubated for 72 h under 5% CO2 at 37° C.
as §3, §18, §4, §19, §5, §6, §16

Another assay concerns Sk-Br-3 cells. Kind of assay: Sk-Br-3 Cell Growth Inhibition Test (SRB Assay). The assay is classed as cell-based. As to conditions: Homo sapiens, 91 h incubation. As to the method:
Sk-Br-3 Cell Growth Inhibition Test (SRB Assay)
1. Cell strains: Sk-Br-3 (human breast cancer cell strains);
2. SRB: available from Sigmaaldrich, goods number: S9012, lot number: 047K3751. SRB was reserved at the room temperature. 0.4% (w/v) of working solution was formulated with 1% of glacial acetic acid. The solution was reserved at 4° C.; anti-tumor compounds; DMSO
Culture medium: 90% DMEM+10% FBS;
as §7
2. PBS was sucked out. […] of 0.25% pancreatin was added to infiltrate the cells for 30 s;
3. The pancreatin was sucked out. The culture plate was placed in an incubator. Digestion was carried out for about 1.5-2 min at 37° C.;
4. 4 mL of complete culture solution was added to the culture plate to stop the digestion. The cells were carefully scoured with micropipette (1 ml) to give a uniform single cell suspension;
5. Cell suspension was counted. The suspension was diluted to 1×10^5/ml. The resulting suspension was developed uniformly on a plate by 10000 cells/100 μl per well. The culture plate was incubated overnight under 5% CO2 at 37° C. In day 2, 100 μl of culture solution comprising a compound was added in each well, and further incubated for 91 h under 5% CO2 at 37° C.
as §8, §9, §10, §11, §12, §13, §14, §15
To: OD values of the starting content of cells when the cells were developed on a plate;
PC: OD values of cells after normal growth in control wells without a compound;
Ti: OD values of cells after growth in test wells with a compound;
NC: Background OD values of blank well without a compound and cells
Therefore: Ratio of cells in test wells to normal wells (% of control cell growth)=(Ti−To)/(PC−To)×100%
Ratio GI50 was concentration of a compound at the point of 50%.
Therefore: Ratio of killed cells to inoculated cells (% of killed cells)=(Ti−To)/(To−NC)×100%
LC50 was concentration point of a compound when half of the starting inoculated concentration was reached.
Concentration of a compound at this point is defined as TGI (total growth inhibition).

For orientation: IC50 means the concentration at which inhibition is half-maximal. Read a high IC50 as weaker potency in that assay. What is called GI50 is the concentration that inhibits growth by half. A lower GI50 goes with greater sensitivity of the cells.

In the case of `C#Cc1cccc(Nc2c(C#N)cnc3cc(OC4CCOC4)c(NC(=O)/C=C/CN(C)C)cc23)c1` (mixture of isomers) [Example 177, (E/Z)-N-(3-CYANO-4-(3-ETHYNYLPHENYLAMINO)-7-(TETRAHYDROFURAN-3-YL-OXY)QUINOLIN-6-YL)-4-(DIMETHYLAMINO)-BUT-2-ENAMIDE], the inhibition at 1 µM with A431 cells is 81%; in the assay on BT-474 cells it was 87%.
As for `N#Cc1cnc2cc(O[C@H]3CCOC3)c(NC(=O)/C=C/CNCCCCCCO)cc2c1Nc1ccc(OCc2ccccn2)c(Cl)c1` [Example 154, (S,E)-N-(4-(3-CHLORO-4-(PYRIDIN-2-YL-METHOXY)PHENYLAMINO)-3-CYANO-7-(TETRAHYDROFURAN-3-YL-OXY)QUINOLIN-6-YL)-4-(6-HYDROXYHEXYLAMINO)-BUT-2-ENAMIDE], the IC50 in the assay with NCI-N87 cells was found to be 41 nM; in the assay with Fadu cells, 324 nM; in the assay with A431 cells (A-431, 68 h incubation), 162 nM; with BT-474 cells, 12 nM. Further, growth with Sk-Br-3 cells was halved (GI50) at 38 nM.
For `CN(C)C/C=C/C(=O)Nc1cc2c(Nc3ccc(F)c(Cl)c3)c(C#N)cnc2cc1OC1CCOC1` (mixture of isomers) [Example 176, (E/Z)-N-(4-(3-CHLORO-4-FLUOROPHENYLAMINO)-3-CYANO-7-(TETRAHYDROFURAN-3-YL-OXY)QUINOLIN-6-YL)-4-(DIMETHYLAMINO)-BUT-2-ENAMIDE], the inhibition at 1 µM is 79% with A431 cells and 89% in the assay on BT-474 cells.
As for `Cc1ccc(COc2ccc(Nc3c(C#N)cnc4cc(O[C@H]5CCOC5)c(NC(=O)/C=C/CN(C)C)cc34)cc2Cl)cc1` [Example 167, (S,E)-N-(4-(4-(4-METHYLBENZYLOXY)-3-CHLOROPHENYLAMINO)-3-CYANO-7-(TETRAHYDROFURAN-3-YL-OXY)QUINOLIN-6-YL)-4-(DIMETHYLAMINO)-BUT-2-ENAMIDE], the inhibition at 1 µM with A431 cells and with BT-474 cells was 75% throughout.

(Values after patent publication US9187458B2, “Cyanoquinoline derivatives” (Tianjin Hemay Bio-Tech Co., LTD., priority 2010, dated 2015).)
